According to patent US20200223839A1, “FLUORO-CONTAINING COMPOUNDS, USE AND PREPARATION THEREOF” (JIANGSU YINGKEBEITA YIYAOKEJI CO. LTD, priority 2017, published 2020):
pIC50: −log10 of the molar value.

What was measured:
Type in all cases: cell-based
[1] = tested on: MCF-7; assay: Cytotoxicity assay by the CTG method, MCF-7; settings: Homo sapiens, MCF7, MCF-7, Breast cancer, 72 h
Experimental: (§1) The corresponding cells were harvested from flask into cell culture medium and the cell number were counted. The cells were diluted with culture medium to the desired density and 40 μL of cell suspension was added into each well of 384-well cell culture plate as designated. The plates were covered with lid and placed in room temperature for 30 minutes without shaking and then were transferred plates into 37° C. 5% CO2 incubator overnight for cell attachment.
(§2) Compound preparation and treatment: Test compounds were received or dissolved at 30 mM stock solution and control compound Staurosporine was stored as 10 mM and 1 mM concentration. 45 uL of stock solution was transferred to a 384 pp-plate. 3 fold, 10-point dilution were performed via transferring 15 uL compound into 30 μL DMSO by using TECAN (EVO200) liquid handler. The plates were spun at room temperature at 1,000 RPM for 1 minute and shaken at a plate shaker for 2 minutes. […]
(§3) The plate from incubators were placed and equilibrated at room temperature for 15 minutes. […] 40 μL of CellTiter-Glo reagent were transferred into each well to be detected (at 1:1 to culture medium). Then the plates were placed at room temperature for 30 min followed by reading on EnSpire.
(§4) The inhibition activity was calculated following the formula below: […]
(§5) The IC50 were calculated by fitting the Curve using Xlfit (v5.3.1.3): […]

[2] = tested on: MOLT4; assay: Cytotoxicity assay by the CTG method, MOLT4; settings: Homo sapiens, MOLT-4, MOLT4, Leukemia, 72 h
Experimental: as §1, §2, §3, §4, §5

[3] = tested on: SK-MEL-3; assay: Cytotoxicity assay by the CTG method, SK-MEL-3; settings: Homo sapiens, SK-MEL3, SK-MEL-3, Melanoma, 72 h
Experimental: as §1, §2, §3, §4, §5

[4] = tested on: U87MG; assay: Cytotoxicity assay by the CTG method, U87MG; settings: Homo sapiens, U-87 MG, Glioblastoma, 72 h
Experimental: as §1, §2, §3, §4, §5

[5] = tested on: MDA-MB-468 cell line; assay: Anti-tumor activity against MDA-MB-468 cell line (CCK-8 test); settings: Homo sapiens, MDA-MB-468, 72 h
Experimental: A cryo tube was removed from liquid nitrogen. As quickly as possible, the cells were thawed by placing the vial in a 37° C. water bath and gently shaking the vials. The cells were transferred to medium tube, which containing 5 mL medium, and were centrifuged at 1000 rpm for 6 min. The supernatant containing dead cells and cell debris was discarded. 1 mL of pre-warmed medium with 10% FBS was add and the solution was re-suspended. The plate was placed in 37° C. and 5% CO2 incubator. The medium was changed next day.
Cells in logarithmic growth stage were taken and culture medium was discarded. 1 mL 0.25% trypsin solution was added for twice. The trypsin solution was removed and the 0.5 ml 0.25% trypsin solution was added to the cell flask. The plate was placed in 37° C. and 5% CO2 incubator for a few minutes until the cells recovered. 1 mL medium was added to stop digestion. The liquid was transferred by pipette for experiment.
the cells were suspended and the medium was discarded. 1 mL 0.25% trypsin solution was added for twice and the trypsin digestion was centrifuged. The cells were suspended with the culture medium, count and adjusted to the appropriate concentration.
The cell suspension was added to the 96-well plate with a volume of 100 uL per well, as shown in Tab. 5, and was placed in 37° C., 5% CO2 incubator overnight.
Preparation of Compounds Working Solution.
The test compounds were dissolved in DMSO at 10 mM with sterile filter (0.22 um, nelon, JET). After filtering, the solution were continuously diluted by three times with DMSO. A total of six concentration were prepared, as shown below.
6 uL compound solution was added to 594 uL medium and the solution was added to 96-well plate as shown and cultured for 72 h in CO2 incubator.
A CCK-8 solution was prepared according to the instructions and the 96-well plate was taken out and the original medium discarded. 100 uL cck-8 solution was added to each well in the 96-well plate. Photoabsorption data were read by TECAN enzyme marker after a period of time.
IC (%)=[Ac-As]/[Ac-Ab]*100% • As: Experimental well (containing culture medium, cell, CCK-8 and compound); • Ac: Controlled well (containing culture medium, cell and CCK-8); • Ab: Blank well (Only containing medium and CCK-8).

pIC50 [5]: 6.04
SMILES: Cc1ccc(S(=O)(=O)Nc2nc3ccccc3nc2Nc2ccc3nsnc3c2)cc1F [Compound 4f, N-[3-(benzo[1,2,5]thiadiazol-5-ylamino)-quinoxalin-2-yl]-3-fluoro-4-methyl-benzenesulfonamide]
pIC50 [1]: 5.28 | pIC50 [2]: 5.33 | pIC50 [3]: 5.04 | pIC50 [4]: 4.75
